The values below are quoted from earlier work in US20110257262A1, “CRYSTALLINE INGENOL MEBUTATE” (LEO PHARMA A/S, priority 2010, published 2011).

The test system of one series is skin cancer cells. Conditions: via rapid mitochondrial disruption and cell death by primary necrosis.
For a further series, the system named is normal cells. Particulars: compared with skin cancer cells.

As for `C/C=C(/C)C(=O)O[C@H]1C(C)=C[C@]23C(=O)[C@@H](C=C(CO)[C@@H](O)[C@]12O)[C@H]1[C@@H](C[C@H]3C)C1(C)C` [Ingenol mebutate, (1aR,2S,5R,5aS,6S,8aS,9R,10aR)-5,5a-dihydroxy-4-(hydroxy-methyl)-1,1,7,9-tetramethyl-11-oxo-1a,2,5,5a,6,9,10,10a-octahydro-1H2,8a-methanocyclopenta[a]cyclopropa[e]cyclodecen-6-yl(2Z)-2-methylbut-2-enoate], the “toxicity for skin cancer cells” value with skin cancer cells was “highly toxic”. In addition, the “sensitivity of normal cells” value in the series with normal cells is “less sensitive”.
